# Laboratory results as given in patent publication US20090105270A1, “Kinase inhibition and anticancer therapy” (priority 2007, published 2009).
# Experiments:
# JAK2(h) = target: T1, JAK2(h) (Homo sapiens, UniProt O60674); assay: Upstate kinase activity inhibition assay JAK2(h); format: biochemical
# T1 construct: purchased Upstate (KinaseProfiler service)
# MSSK1(h) = MSSK1(h) (Homo sapiens, UniProt Q9UPE1); assay: Upstate kinase activity inhibition assay MSSK1(h); settings: 40 min, read-out: percentage of enzyme activity that remains
# GSK3α(h) = GSK3α(h) (Homo sapiens, UniProt P49840); assay: Upstate kinase activity inhibition assay GSK3α(h); settings: 40 min, read-out: percentage of enzyme activity that remains
# HIPK3(h) = HIPK3(h) (Homo sapiens, UniProt Q9H422); assay: Upstate kinase activity inhibition assay HIPK3(h); settings: 40 min, read-out: percentage of enzyme activity that remains
# PKG1β(h) = target: T2, PKG1β(h) (Homo sapiens, UniProt Q13976); assay: Upstate kinase activity inhibition assay PKG1β(h); format: biochemical; settings: 40 min; read-out: percentage of enzyme activity that remains
# T2 construct: purchased Upstate (KinaseProfiler service)
# Flt3(h) = Flt3(h) (Homo sapiens, UniProt P36888); assay: Upstate kinase activity inhibition assay Flt3(h); settings: 40 min, read-out: percentage of enzyme activity that remains
# PAK4(h) = PAK4(h) (Homo sapiens, UniProt O96013); assay: Upstate kinase activity inhibition assay PAK4(h); settings: 40 min, read-out: percentage of enzyme activity that remains
# Lyn(h) = target: T3, Lyn(h) (Homo sapiens, UniProt P07948); assay: Upstate kinase activity inhibition assay Lyn(h); format: biochemical; settings: 40 min; read-out: percentage of enzyme activity that remains
# T3 construct: purchased Upstate (KinaseProfiler service)
# SGK(h) = target: T4, SGK(h) (Homo sapiens, UniProt O00141, S422D); assay: Upstate kinase activity inhibition assay SGK(h); format: biochemical; settings: 40 min; read-out: percentage of enzyme activity that remains
# T4 construct: purchased Upstate (KinaseProfiler service)
# Axl(h) = target: T5, Axl(h) (Homo sapiens, UniProt P30530); assay: Upstate kinase activity inhibition assay Axl(h); format: biochemical; settings: 40 min; read-out: percentage of enzyme activity that remains
# T5 construct: purchased Upstate (KinaseProfiler service)
# CK2α2(h) = target: T6, CK2α2(h) (Homo sapiens, UniProt P19784); assay: Upstate kinase activity inhibition assay CK2α2(h); format: biochemical; settings: 40 min; read-out: percentage of enzyme activity that remains
# T6 construct: purchased Upstate (KinaseProfiler service)
# TBK1(h) = TBK1(h) (Homo sapiens, UniProt Q9UHD2); assay: Upstate kinase activity inhibition assay TBK1(h); settings: 40 min, read-out: percentage of enzyme activity that remains
# TrkB(h) = TrkB(h) (Homo sapiens, UniProt Q16620); assay: Upstate kinase activity inhibition assay TrkB(h); settings: 40 min, read-out: percentage of enzyme activity that remains
# eEF-2K(h) = target: T7, eEF-2K(h) (Homo sapiens, UniProt O00418); assay: Upstate kinase activity inhibition assay eEF-2K(h); format: biochemical; settings: 40 min; read-out: percentage of enzyme activity that remains
# T7 construct: purchased Upstate (KinaseProfiler service)
# Ret(h) = target: T8, Ret(h) (Homo sapiens, UniProt P07949); assay: Upstate kinase activity inhibition assay Ret(h); format: biochemical; settings: 40 min; read-out: percentage of enzyme activity that remains
# T8 construct: purchased Upstate (KinaseProfiler service)
# Hck(h) = target: T9, Hck(h) (Homo sapiens, UniProt P08631); assay: Upstate kinase activity inhibition assay Hck(h); format: biochemical; settings: 40 min; read-out: percentage of enzyme activity that remains
# T9 construct: purchased Upstate (KinaseProfiler service)
# HIPK1(h) = HIPK1(h) (Homo sapiens, UniProt Q86Z02); assay: Upstate kinase activity inhibition assay HIPK1(h); settings: 40 min, read-out: percentage of enzyme activity that remains
# PDK1(h) = target: T10, PDK1(h) (Homo sapiens, UniProt O15530); assay: Upstate kinase activity inhibition assay PDK1(h); format: biochemical; settings: 40 min; read-out: percentage of enzyme activity that remains
# T10 construct: purchased Upstate (KinaseProfiler service)
# Fyn(h) = target: T11, Fyn(h) (Homo sapiens, UniProt P06241); assay: Upstate kinase activity inhibition assay Fyn(h); format: biochemical; settings: 40 min; read-out: percentage of enzyme activity that remains
# T11 construct: purchased Upstate (KinaseProfiler service)
# EphA4(h) = EphA4(h) (Homo sapiens, UniProt P54764); assay: Upstate kinase activity inhibition assay EphA4(h); settings: 40 min, read-out: percentage of enzyme activity that remains
# NLK (h) = NLK (h) (Homo sapiens, UniProt Q9UBE8); assay: Upstate kinase activity inhibition assay NLK (h); settings: 40 min, read-out: percentage of enzyme activity that remains
# JNK3(h) = target: T12, JNK3(h) (Homo sapiens, UniProt P53779); assay: Upstate kinase activity inhibition assay JNK3(h); format: biochemical
# T12 construct: purchased Upstate (KinaseProfiler service)
# PKBα(h) = target: T13, PKBα(h) (Homo sapiens, UniProt P31749); assay: Upstate kinase activity inhibition assay PKBα(h); format: biochemical; settings: 40 min; read-out: percentage of enzyme activity that remains
# T13 construct: purchased Upstate (KinaseProfiler service)
# FGFR3(h) = FGFR3(h) (Homo sapiens, UniProt P22607); assay: Upstate kinase activity inhibition assay FGFR3(h); settings: 40 min, read-out: percentage of enzyme activity that remains
# IGF-1R(h) = IGF-1R(h) (Homo sapiens, UniProt P08069); assay: Upstate kinase activity inhibition assay IGF-1R(h); settings: 40 min, read-out: percentage of enzyme activity that remains
# Flt3(D835Y)(h) = Flt3(D835Y)(h) (Homo sapiens, UniProt P36888, D835Y); assay: Upstate kinase activity inhibition assay Flt3(D835Y)(h); settings: 40 min, read-out: percentage of enzyme activity that remains
# SGK3(h) = SGK3(h) (Homo sapiens, UniProt Q96BR1); assay: Upstate kinase activity inhibition assay SGK3(h); settings: 40 min, read-out: percentage of enzyme activity that remains
# RIPK2(h) = RIPK2(h) (Homo sapiens, UniProt O43353); assay: Upstate kinase activity inhibition assay RIPK2(h); settings: 40 min, read-out: percentage of enzyme activity that remains
# Rse(h) = target: T14, Rse(h) (Homo sapiens, UniProt Q06418); assay: Upstate kinase activity inhibition assay Rse(h); format: biochemical; settings: 40 min; read-out: percentage of enzyme activity that remains
# T14 construct: purchased Upstate (KinaseProfiler service)
# DYRK2(h) = target: T15, DYRK2(h) (Homo sapiens, UniProt Q92630); assay: Upstate kinase activity inhibition assay DYRK2(h); format: biochemical; settings: 40 min; read-out: percentage of enzyme activity that remains
# T15 construct: purchased Upstate (KinaseProfiler service)
# HIPK3(h), sequence (Q9H422 whole entry): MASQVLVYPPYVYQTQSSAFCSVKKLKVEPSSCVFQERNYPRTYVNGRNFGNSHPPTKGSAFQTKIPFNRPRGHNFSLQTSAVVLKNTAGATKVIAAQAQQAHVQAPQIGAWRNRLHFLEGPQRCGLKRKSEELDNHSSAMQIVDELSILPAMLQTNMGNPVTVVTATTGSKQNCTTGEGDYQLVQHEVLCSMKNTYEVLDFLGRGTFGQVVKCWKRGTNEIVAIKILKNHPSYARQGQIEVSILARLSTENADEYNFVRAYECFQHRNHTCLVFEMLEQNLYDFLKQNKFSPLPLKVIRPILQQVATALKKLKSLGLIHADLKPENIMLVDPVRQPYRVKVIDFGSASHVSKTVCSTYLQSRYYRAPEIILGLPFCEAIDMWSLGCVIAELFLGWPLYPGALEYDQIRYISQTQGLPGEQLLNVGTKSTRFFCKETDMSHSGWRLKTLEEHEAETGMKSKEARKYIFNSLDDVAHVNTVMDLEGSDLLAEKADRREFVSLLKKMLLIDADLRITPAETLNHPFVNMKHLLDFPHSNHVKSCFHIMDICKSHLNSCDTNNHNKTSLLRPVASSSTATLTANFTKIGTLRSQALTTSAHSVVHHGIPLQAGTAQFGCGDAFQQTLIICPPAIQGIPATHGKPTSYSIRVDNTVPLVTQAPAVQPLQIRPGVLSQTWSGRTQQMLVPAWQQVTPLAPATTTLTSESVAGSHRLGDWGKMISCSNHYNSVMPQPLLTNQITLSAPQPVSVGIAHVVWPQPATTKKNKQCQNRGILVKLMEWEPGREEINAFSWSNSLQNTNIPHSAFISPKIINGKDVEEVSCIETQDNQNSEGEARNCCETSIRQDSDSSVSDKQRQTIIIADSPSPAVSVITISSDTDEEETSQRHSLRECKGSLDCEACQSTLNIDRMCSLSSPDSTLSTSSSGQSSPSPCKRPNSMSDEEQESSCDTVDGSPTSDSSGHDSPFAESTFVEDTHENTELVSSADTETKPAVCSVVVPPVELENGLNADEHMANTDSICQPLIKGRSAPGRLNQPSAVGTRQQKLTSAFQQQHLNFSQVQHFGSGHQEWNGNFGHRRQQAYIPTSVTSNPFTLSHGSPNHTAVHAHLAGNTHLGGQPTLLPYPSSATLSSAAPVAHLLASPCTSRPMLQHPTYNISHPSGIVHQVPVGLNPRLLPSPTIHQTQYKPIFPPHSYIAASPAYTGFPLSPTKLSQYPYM
# T2 sequence (Q13976 1-686 isoform Q13976-2): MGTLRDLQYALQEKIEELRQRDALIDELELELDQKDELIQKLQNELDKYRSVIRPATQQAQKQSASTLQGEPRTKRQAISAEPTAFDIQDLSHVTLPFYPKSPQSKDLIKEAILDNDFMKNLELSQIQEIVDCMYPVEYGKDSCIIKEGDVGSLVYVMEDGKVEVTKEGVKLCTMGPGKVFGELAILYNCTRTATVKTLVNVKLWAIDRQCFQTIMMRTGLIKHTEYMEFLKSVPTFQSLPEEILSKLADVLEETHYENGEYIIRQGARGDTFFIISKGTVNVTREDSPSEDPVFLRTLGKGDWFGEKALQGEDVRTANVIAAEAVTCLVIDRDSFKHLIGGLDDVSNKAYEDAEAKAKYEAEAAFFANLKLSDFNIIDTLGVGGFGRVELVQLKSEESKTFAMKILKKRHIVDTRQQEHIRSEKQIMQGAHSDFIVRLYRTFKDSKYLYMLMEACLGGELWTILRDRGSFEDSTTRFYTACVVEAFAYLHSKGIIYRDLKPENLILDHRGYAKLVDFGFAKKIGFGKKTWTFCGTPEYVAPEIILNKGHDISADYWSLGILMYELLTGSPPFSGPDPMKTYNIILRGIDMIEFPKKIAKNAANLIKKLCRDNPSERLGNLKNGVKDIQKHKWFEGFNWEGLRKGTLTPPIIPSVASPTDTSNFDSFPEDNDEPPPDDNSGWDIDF
# T13 sequence (P31749 whole entry): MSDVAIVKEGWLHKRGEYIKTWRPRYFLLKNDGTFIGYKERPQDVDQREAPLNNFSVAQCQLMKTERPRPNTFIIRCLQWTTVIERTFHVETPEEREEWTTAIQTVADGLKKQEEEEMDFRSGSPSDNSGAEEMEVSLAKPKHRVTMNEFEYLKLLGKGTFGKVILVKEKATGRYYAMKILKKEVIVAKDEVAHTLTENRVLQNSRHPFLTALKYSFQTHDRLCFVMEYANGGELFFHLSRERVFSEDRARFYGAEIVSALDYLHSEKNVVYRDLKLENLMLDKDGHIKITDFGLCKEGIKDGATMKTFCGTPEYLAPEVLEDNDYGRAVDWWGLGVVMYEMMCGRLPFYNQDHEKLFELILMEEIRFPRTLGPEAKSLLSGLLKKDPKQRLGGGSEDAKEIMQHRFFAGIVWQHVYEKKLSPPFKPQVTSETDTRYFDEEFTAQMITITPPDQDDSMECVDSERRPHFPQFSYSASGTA
# TBK1(h), sequence (Q9UHD2 whole entry): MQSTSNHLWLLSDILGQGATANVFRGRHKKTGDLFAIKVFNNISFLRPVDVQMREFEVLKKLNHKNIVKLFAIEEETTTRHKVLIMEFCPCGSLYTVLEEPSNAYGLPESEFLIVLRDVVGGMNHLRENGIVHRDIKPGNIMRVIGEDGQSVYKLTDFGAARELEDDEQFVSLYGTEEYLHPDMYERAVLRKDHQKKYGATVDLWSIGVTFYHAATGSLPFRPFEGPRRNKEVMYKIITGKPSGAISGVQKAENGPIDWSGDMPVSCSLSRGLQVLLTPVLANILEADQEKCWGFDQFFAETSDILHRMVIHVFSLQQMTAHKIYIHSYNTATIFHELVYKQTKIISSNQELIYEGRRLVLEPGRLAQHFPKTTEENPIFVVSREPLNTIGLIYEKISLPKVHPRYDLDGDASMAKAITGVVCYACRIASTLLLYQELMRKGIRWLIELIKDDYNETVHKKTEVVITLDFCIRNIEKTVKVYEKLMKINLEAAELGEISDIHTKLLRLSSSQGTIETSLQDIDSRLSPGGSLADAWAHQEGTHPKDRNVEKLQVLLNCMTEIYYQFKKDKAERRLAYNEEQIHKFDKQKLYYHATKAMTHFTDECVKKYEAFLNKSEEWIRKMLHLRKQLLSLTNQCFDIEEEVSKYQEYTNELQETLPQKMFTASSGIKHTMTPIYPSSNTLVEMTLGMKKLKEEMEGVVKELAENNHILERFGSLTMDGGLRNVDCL
# RIPK2(h), sequence (O43353 whole entry): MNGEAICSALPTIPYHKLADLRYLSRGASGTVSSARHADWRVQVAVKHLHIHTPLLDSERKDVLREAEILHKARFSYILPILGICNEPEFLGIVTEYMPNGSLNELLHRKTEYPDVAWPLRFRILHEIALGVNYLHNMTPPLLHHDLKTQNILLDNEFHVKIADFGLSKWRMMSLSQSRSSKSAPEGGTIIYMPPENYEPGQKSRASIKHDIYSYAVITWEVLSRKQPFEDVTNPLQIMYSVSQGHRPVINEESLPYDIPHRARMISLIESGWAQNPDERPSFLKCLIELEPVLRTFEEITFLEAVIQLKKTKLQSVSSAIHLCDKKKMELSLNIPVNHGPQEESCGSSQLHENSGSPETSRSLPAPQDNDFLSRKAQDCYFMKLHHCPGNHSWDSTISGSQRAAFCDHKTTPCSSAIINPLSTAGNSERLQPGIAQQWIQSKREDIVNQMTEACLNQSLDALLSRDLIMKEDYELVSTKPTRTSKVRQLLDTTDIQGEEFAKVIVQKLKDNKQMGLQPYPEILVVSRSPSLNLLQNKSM
# EphA4(h), sequence (P54764 20-986): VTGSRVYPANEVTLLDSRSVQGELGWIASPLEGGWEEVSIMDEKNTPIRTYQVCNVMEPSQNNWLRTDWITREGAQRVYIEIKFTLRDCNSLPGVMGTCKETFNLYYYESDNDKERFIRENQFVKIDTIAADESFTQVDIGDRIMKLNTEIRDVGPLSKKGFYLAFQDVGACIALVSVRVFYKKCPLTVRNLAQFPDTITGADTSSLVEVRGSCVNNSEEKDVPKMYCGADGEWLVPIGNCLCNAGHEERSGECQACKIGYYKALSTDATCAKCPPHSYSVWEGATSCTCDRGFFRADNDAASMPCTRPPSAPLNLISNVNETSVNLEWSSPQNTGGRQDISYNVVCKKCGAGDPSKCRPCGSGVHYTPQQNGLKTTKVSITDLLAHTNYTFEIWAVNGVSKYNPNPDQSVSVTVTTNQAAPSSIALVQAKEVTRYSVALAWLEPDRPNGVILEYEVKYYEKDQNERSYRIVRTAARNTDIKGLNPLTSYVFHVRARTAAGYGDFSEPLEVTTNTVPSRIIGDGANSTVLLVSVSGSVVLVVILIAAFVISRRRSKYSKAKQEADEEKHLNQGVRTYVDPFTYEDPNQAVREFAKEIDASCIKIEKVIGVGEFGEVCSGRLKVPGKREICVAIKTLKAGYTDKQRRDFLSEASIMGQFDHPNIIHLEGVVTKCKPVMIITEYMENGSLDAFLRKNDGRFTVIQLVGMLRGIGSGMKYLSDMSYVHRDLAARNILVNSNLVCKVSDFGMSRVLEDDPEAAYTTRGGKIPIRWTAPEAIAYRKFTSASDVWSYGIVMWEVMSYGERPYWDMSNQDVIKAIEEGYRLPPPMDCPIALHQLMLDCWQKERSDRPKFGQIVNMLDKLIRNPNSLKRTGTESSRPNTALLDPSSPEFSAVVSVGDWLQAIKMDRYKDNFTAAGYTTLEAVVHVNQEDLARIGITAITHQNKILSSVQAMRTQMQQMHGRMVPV
# T4 sequence (O00141 60-431 S422D limits assumed): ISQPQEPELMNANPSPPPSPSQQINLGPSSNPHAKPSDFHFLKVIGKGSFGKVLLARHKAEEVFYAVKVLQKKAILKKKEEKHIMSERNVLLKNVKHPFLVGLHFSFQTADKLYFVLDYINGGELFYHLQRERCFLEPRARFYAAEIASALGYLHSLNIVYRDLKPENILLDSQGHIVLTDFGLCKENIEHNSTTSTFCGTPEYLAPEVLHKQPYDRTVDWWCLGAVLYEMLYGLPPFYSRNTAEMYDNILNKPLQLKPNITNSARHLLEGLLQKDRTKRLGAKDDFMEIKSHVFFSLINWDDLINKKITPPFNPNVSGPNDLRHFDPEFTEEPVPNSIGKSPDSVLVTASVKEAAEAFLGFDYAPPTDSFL
compound,measurement,setting,value
"Cc1cc(Nc2cc(N3CCN(C)CC3)nc(Sc3ccc(NC(=O)C4CC4)cc3)n2)n[nH]1 [Compound E, Cyclopropane carboxylic acid {4-[4-(4-methyl-piperazin-1-yl)-6-(5-methyl-2H-pyrazol-3-ylamino)-pyrimidin-2-ylsulphanyl]-phenyl}-amide]",percentage of enzyme activity that remains,JAK2(h); 0.2 μM Compound E,75%
same,percentage of enzyme activity that remains,JAK2(h); 4 μM Compound E,19%
same,remaining activity at 0.2 µM,MSSK1(h),110%
same,remaining activity at 4 µM,MSSK1(h),108%
same,remaining activity at 0.2 µM,GSK3α(h),106%
same,remaining activity at 4 µM,GSK3α(h),102%
same,remaining activity at 0.2 µM,HIPK3(h),112%
same,remaining activity at 4 µM,HIPK3(h),95%
same,remaining activity at 0.2 µM,PKG1β(h),87%
same,remaining activity at 4 µM,PKG1β(h),87%
same,remaining activity at 0.2 µM,Flt3(h),21%
same,remaining activity at 4 µM,Flt3(h),7%
same,remaining activity at 0.2 µM,PAK4(h),85%
same,remaining activity at 4 µM,PAK4(h),75%
same,remaining activity at 0.2 µM,Lyn(h),45%
same,remaining activity at 4 µM,Lyn(h),3%
same,remaining activity at 0.2 µM,SGK(h),113%
same,remaining activity at 4 µM,SGK(h),109%
same,remaining activity at 0.2 µM,Axl(h),79%
same,remaining activity at 4 µM,Axl(h),19%
same,remaining activity at 0.2 µM,CK2α2(h),100%
same,remaining activity at 0.2 µM,TBK1(h),106%
same,remaining activity at 4 µM,TBK1(h),57%
same,remaining activity at 0.2 µM,TrkB(h),71%
same,remaining activity at 4 µM,TrkB(h),1%
same,remaining activity at 0.2 µM,eEF-2K(h),91%
same,remaining activity at 4 µM,eEF-2K(h),82%
same,remaining activity at 0.2 µM,Ret(h),34%
same,remaining activity at 4 µM,Ret(h),2%
same,remaining activity at 0.2 µM,Hck(h),98%
same,remaining activity at 4 µM,Hck(h),45%
same,remaining activity at 0.2 µM,HIPK1(h),100%
same,remaining activity at 4 µM,HIPK1(h),100%
same,remaining activity at 0.2 µM,PDK1(h),97%
same,remaining activity at 4 µM,PDK1(h),86%
same,remaining activity at 4 µM,Fyn(h),4%
same,remaining activity at 0.2 µM,EphA4(h),103%
same,remaining activity at 4 µM,EphA4(h),61%
same,remaining activity at 0.2 µM,NLK (h),105%
same,remaining activity at 4 µM,NLK (h),99%
same,percentage of enzyme activity that remains,JNK3(h); 0.2 μM Compound E,94%
same,percentage of enzyme activity that remains,JNK3(h); 4 μM Compound E,69%
same,remaining activity at 0.2 µM,PKBα(h),110%
same,remaining activity at 4 µM,PKBα(h),110%
same,remaining activity at 0.2 µM,FGFR3(h),87%
same,remaining activity at 4 µM,FGFR3(h),29%
same,remaining activity at 0.2 µM,IGF-1R(h),76%
same,remaining activity at 4 µM,IGF-1R(h),26%
same,remaining activity at 0.2 µM,Flt3(D835Y)(h),50%
same,remaining activity at 4 µM,Flt3(D835Y)(h),7%
same,remaining activity at 0.2 µM,SGK3(h),103%
same,remaining activity at 4 µM,SGK3(h),87%
same,remaining activity at 0.2 µM,RIPK2(h),107%
same,remaining activity at 4 µM,RIPK2(h),105%
same,remaining activity at 0.2 µM,Rse(h),94%
same,remaining activity at 4 µM,Rse(h),77%
same,remaining activity at 0.2 µM,DYRK2(h),100%
same,remaining activity at 4 µM,DYRK2(h),110%
